Experimental data published in ChEMBL document CHEMBL5352416, “Benzo[b]thiophene-2-carboxamides as novel opioid receptor agonists with potent analgesic effect and reduced constipation” (Eur J Med Chem, 2022).
Activity calls are given as the source filed them. The calls are words filed in the database; no cut-off is given here.

What was measured:
[1] = molecular target: T1, Mu-type opioid receptor (Homo sapiens, UniProt P35372); test: Agonist activity at human mu opioid receptor expressed in CHO-K1 cells coexpressing Galpha15 assessed as increase in fluorescence of [ca2+]i measured for 1.52 sec by FLIPR calcium assay; type: functional, cell-based
T1 sequence (P35372 whole entry): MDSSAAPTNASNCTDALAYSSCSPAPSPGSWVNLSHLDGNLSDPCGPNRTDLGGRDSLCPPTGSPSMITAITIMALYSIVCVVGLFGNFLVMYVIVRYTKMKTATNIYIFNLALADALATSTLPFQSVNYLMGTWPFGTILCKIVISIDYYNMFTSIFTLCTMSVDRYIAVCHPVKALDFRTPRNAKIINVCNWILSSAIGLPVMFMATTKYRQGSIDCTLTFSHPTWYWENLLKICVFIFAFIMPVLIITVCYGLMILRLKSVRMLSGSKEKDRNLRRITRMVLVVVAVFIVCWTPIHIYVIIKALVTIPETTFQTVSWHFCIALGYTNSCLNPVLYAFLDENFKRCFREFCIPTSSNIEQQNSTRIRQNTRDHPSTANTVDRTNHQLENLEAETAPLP

[2] = molecular target: T1, Mu-type opioid receptor; test: Agonist activity at human mu opioid receptor expressed in CHO-K1 cells coexpressing Galpha15 assessed as increase in fluorescence of [ca2+]i by measuring maximum efficacy measured for 1.52 sec by FLIPR calcium assay relative to control; type: functional, cell-based
[3] = Drug concentration in C57BL/6 mouse brain at 2 mg/kg, sc measured for 60 min by ICP-MS analysis; type: ADME, organism-based; conditions: read-out: Ct
[4] = test system: Mus musculus; test: Induction of motivational effect in C57BL/6 mouse assessed as increase in reward behaviour at 126.4 to 252.8 microg/kg, sc administered for 4 days and measured on day 6 by CPP analysis; type: functional, organism-based; conditions: dose 126.4-252.8 µg/kg, time 6.0 day
[5] = test system: Mus musculus; test: Antinociceptive activity in CFA-induced mechanical allodynia MOR knockout C57BL/6 mouse model at 252.8 microg/kg, sc administered twice daily pretreated with CFA for 2 days followed by compound addition and measured at 3 to 7 days by von frey test; type: functional, organism-based; conditions: dose 252.8 µg/kg, time 3-7 day
[6] = test system: Mus musculus; test: Antinociceptive activity in C57BL/6 mouse at 252.8 microg/kg, sc measured after 5 days in presence of naltrindole by tail flick test; type: functional, organism-based; conditions: dose 252.8 µg/kg, time 5.0 day
[7] = molecular target: T2, Delta-type opioid receptor (Homo sapiens, UniProt P41143); test: Agonist activity at human DOR receptor expressed in CHO-K1 cells assessed as decrease in intracellular cAMP level measured after 1 hr by LANCE ultra cAMP assay; type: functional, cell-based
T2 sequence (P41143 whole entry): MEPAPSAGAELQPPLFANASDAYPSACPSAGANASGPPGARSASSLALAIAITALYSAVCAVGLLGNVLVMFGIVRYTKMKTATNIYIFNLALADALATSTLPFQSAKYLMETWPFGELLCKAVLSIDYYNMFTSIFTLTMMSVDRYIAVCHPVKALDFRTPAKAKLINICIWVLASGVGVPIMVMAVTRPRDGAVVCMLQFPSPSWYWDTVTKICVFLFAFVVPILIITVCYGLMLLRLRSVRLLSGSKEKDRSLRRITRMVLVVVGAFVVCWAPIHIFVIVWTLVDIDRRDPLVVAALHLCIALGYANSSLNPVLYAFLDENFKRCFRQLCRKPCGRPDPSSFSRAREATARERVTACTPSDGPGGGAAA

[8] = molecular target: T1, Mu-type opioid receptor; test: Agonist activity at human mu opioid receptor expressed in CHO-K1 cells assessed as decrease in intracellular cAMP level measured after 1 hr by LANCE ultra cAMP assay; type: functional, cell-based
[9] = molecular target: T3, Nociceptin receptor (Homo sapiens, UniProt P41146); test: Agonist activity at human NOP receptor expressed in CHO-K1 cells assessed as decrease in intracellular cAMP level measured after 1 hr by LANCE ultra cAMP assay; type: functional, cell-based
T3 sequence (P41146 whole entry): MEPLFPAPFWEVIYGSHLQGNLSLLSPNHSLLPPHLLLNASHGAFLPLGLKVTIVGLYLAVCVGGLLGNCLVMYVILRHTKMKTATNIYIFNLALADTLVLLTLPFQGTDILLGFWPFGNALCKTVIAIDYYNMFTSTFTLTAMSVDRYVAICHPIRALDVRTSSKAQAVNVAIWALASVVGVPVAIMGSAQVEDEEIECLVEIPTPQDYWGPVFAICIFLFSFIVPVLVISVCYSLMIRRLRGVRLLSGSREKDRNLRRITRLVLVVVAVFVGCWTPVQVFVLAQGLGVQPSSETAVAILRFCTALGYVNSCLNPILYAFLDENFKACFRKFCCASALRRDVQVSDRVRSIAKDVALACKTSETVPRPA

[10] = Drug concentration in C57BL/6 mouse brain at 2 mg/kg, sc measured for 5 min by ICP-MS analysis; type: ADME, organism-based; conditions: read-out: Ct
[11] = test system: Mus musculus; test: Antinociceptive activity in morphine tolerant C57BL/6 mouse at 252.8 microg/kg, sc administered twice per day for 6 days and measured after 30 min by tail flick test; type: functional, organism-based; conditions: dose 252.8 µg/kg
[12] = molecular target: T1, Mu-type opioid receptor; test: Agonist activity at human mu opioid receptor expressed in CHO-K1 cells assessed as decrease in intracellular cAMP level at 0.5 uM in presence of naltrexone; type: functional, cell-based; conditions: filed as agonist
[13] = molecular target: T2, Delta-type opioid receptor; test: Displacement of [3H]-Diprenorphine from human DOR receptor expressed in CHO-K1 cells assessed as inhibition constant measured for 1 hr by liquid scintillation counter analysis; type: cell-based
[14] = molecular target: T3, Nociceptin receptor; test: Agonist activity at human NOP receptor expressed in CHO-K1 cells assessed as decrease in intracellular cAMP level at 0.5 uM in presence of BAN ORL 24; type: functional, cell-based
[15] = molecular target: T1, Mu-type opioid receptor; test: Agonist activity at human mu opioid receptor expressed in CHO-K1 cells assessed as […] beta-arrestin 2 recruitment measured after 1.5 hrs by PathHunter assay; type: functional, cell-based
[16] = Drug concentration in C57BL/6 mouse Intestine at 2 mg/kg, sc measured for 5 min by ICP-MS analysis; type: ADME, organism-based; conditions: read-out: Ct
[17] = test system: Mus musculus; test: Antinociceptive activity in thermal stimulated sc dosed C57BL/6 mouse measured at 30 to 180 mins by tail flick test; type: functional; conditions: time 30-180 min
[18] = test system: Mus musculus; test: Antinociceptive activity in thermal stimulated MOR-knockout C57BL/6 mouse assessed as delay in flick tail at 252.8 microg/kg, sc measured after 30 mins by tail flick test; type: functional, organism-based; conditions: dose 252.8 µg/kg
[19] = molecular target: T2, Delta-type opioid receptor; test: Agonist activity at human DOR receptor expressed in CHO-K1 cells assessed as […] beta-arrestin 2 recruitment measured after 1.5 hrs by PathHunter assay; type: functional, cell-based
[20] = molecular target: T1, Mu-type opioid receptor; test: Displacement of [3H]-Diprenorphine from human MOR receptor expressed in CHO-K1 cells assessed as inhibition constant measured for 1 hr by liquid scintillation counter analysis; type: cell-based
[21] = molecular target: T3, Nociceptin receptor; test: Agonist activity at human NOP receptor expressed in CHO-K1 cells assessed as […] beta-arrestin 2 recruitment measured after 1.5 hrs by PathHunter assay; type: functional, cell-based
[22] = test system: Mus musculus; test: Antinociceptive activity in C57BL/6 mouse at 252.8 microg/kg, sc measured after 5 days in presence of BAN ORL 24 by tail flick test; type: functional, organism-based; conditions: dose 252.8 µg/kg, time 5.0 day
[23] = molecular target: T3, Nociceptin receptor; test: Displacement of [3H]-Nociceptin from human NOP receptor expressed in CHO-K1 cells assessed as inhibition constant measured for 1 hr by liquid scintillation counter analysis; type: cell-based
[24] = test system: Mus musculus; test: Antinociceptive activity in thermal stimulated C57BL/6 mouse at 126.4 to 252.8 microg/kg, sc measured at 30 to 180 mins by tail flick test; type: functional, organism-based; conditions: dose 126.4-252.8 µg/kg, time 30-180 min
[25] = Drug concentration in C57BL/6 mouse plasma at 2 mg/kg, sc measured for 5 min by ICP-MS analysis; type: ADME, organism-based
[26] = Drug concentration in C57BL/6 mouse plasma at 2 mg/kg, sc measured for 60 min by ICP-MS analysis; type: ADME, organism-based
[27] = test system: Mus musculus; test: Antinociceptive activity in thermal stimulated wild type C57BL/6 mouse assessed as tail flick latency at 126.4 to 252.8 microg/kg measured at 30 to 60 mins by tail flick test; type: functional, organism-based; conditions: dose 126.4-252.8 µg/kg, time 30-60 min
[28] = test system: Mus musculus; test: Antinociceptive activity in CFA-induced mechanical allodynia C57BL/6 mouse model at 126.4 to 252.8 microg/kg, sc pretreated with CFA for 2 days followed by compound addition and measured after 1 day by von frey test; type: functional, organism-based; conditions: dose 126.4-252.8 µg/kg
[29] = molecular target: T2, Delta-type opioid receptor; test: Potency index, ratio of DADLE EC50 to test compound EC50 for agonist activity at human DOR receptor expressed in CHO-K1 cells assessed as […] beta-arrestin 2 recruitment measured after 1.5 hrs by PathHunter assay; type: functional, cell-based
[30] = molecular target: T2, Delta-type opioid receptor; test: Agonist activity at human DOR receptor expressed in CHO-K1 cells assessed as decrease in intracellular cAMP level at 0.5 uM in presence of naltrindole; type: functional, cell-based
[31] = test system: Mus musculus; test: Antinociceptive activity in C57BL/6 mouse assessed as drug tolerance at 252.8 microg/kg, sc administered twice per day for 6 days and measured immediately by tail flick test; type: functional, organism-based; conditions: dose 252.8 µg/kg, time 6.0 day
[32] = molecular target: T3, Nociceptin receptor; test: Potency index, ratio of Nociceptin EC50 to test compound EC50 for agonist activity at human NOP receptor expressed in CHO-K1 cells assessed as […] beta-arrestin 2 recruitment measured after 1.5 hrs by PathHunter assay; type: functional, cell-based
[33] = test system: Mus musculus; test: Antinociceptive activity in thermal stimulated C57BL/6 mouse assessed as tail flick latency at 126.4 to 252.8 microg/kg, sc measured at 30 to 60 mins by tail flick test; type: functional, organism-based; conditions: dose 126.4-252.8 µg/kg, time 30-60 min
[34] = Drug concentration in C57BL/6 mouse Intestine at 2 mg/kg, sc measured for 60 min by ICP-MS analysis; type: ADME, organism-based; conditions: read-out: Ct
[35] = test system: Mus musculus; test: Antinociceptive activity in thermal stimulated C57BL/6 mouse assessed as drug tolerance at 126.4 to 252.8 microg/kg, sc administered twice per day for 5 days and measured immediately by tail flick test; type: functional, organism-based; conditions: dose 126.4-252.8 µg/kg, time 5.0 day

Compound: CN(C)C(CNC(=O)c1cc2ccccc2s1)c1ccc(Cl)cc1 (stereo unspecified)
- EC50 [1]: 1.26 µM
- Emax ([2]; filed as agonist): 112%

Compound: Cc1ccc(C(CNC(=O)c2cc3ccccc3s2)N(C)C)cc1 (stereo unspecified)
- concentration at 1 h [3]: 2.03 µg/mL
- Activity [4]: Active
- Activity [5]: Active
- Activity [6]: Active
- EC50 [7]: 0.00213 µM
- EC50 [8]: 0.00023 µM
- EC50 [9]: 0.022 µM
- concentration at 5 min [10]: 1.11 µg/mL
- Activity [11]: Active
- Activity [12]: Active
- Ki [13]: > 0.001 µM
- Activity [14]: inactive
- EC50 [15]: 0.03 µM
- concentration at 5 min [16]: 0.515 µg/mL
- Activity [17]: Dose-Dependent Effect
- ED50 [17]: 127 mg/kg
- EC50 [1]: 8.17 µM
- Activity [18]: Active
- EC50 [19]: > 10 µM
- Ki [20]: 0.0003 µM
- EC50 [21]: 44.8 µM
- Activity [22]: Active
- Ki [23]: 0.65 µM
- Activity [24]: Active
- Emax ([2]; filed as agonist): 114%
- concentration at 5 min [25]: 0.191 µg/mL
- concentration at 1 h [26]: 0.252 µg/mL
- Activity [27]: Active
- Activity [28]: Active
- Ratio EC50 [29]: 233
- Activity [30]: inactive
- Activity [31]: Active
- Ratio EC50 [32]: 2200
- Activity [33]: Active
- concentration at 1 h [34]: 0.936 µg/mL
- Activity [35]: Active

Compound: CN(C)C(CNC(=O)c1cc2ccccc2s1)c1ccc(F)cc1 (stereo unspecified)
- EC50 [1]: 0.0064 µM
- Emax ([2]; filed as agonist): 117%

Compound: CN(C)C(CNC(=O)c1sccc1Cl)c1ccccc1Cl (stereo unspecified)
- EC50 [1]: 1.06 µM
- Emax ([2]; filed as agonist): 50.7%

Compound: CN(C)C(CNC(=O)c1cc2ccccc2s1)c1ccccc1F (stereo unspecified)
- EC50 [1]: 1.24 µM
- Emax ([2]; filed as agonist): 105%

Compound: Cc1ccc2c(Cl)c(C(=O)NCCc3ccccc3Cl)sc2c1
- EC50 [1]: > 10 µM
- Emax [2]: < 20%

Compound: CN(C)C(CNC(=O)c1cc2ccccc2s1)C1CCCCC1 (stereo unspecified)
- EC50 [1]: 11.1 µM
- Emax ([2]; filed as agonist): 91%

Compound: CN(C)C(CNC(=O)c1cc2ccccc2s1)c1ccc(Br)cc1 (stereo unspecified)
- EC50 [1]: 0.15 µM
- Emax ([2]; filed as agonist): 103%

Compound: CN(C)C(CNC(=O)c1cc2ccccc2s1)c1cccc(Cl)c1 (stereo unspecified)
- EC50 [1]: 2.31 µM
- Emax ([2]; filed as agonist): 130%

Compound: CN(C)C(CNC(=O)c1sc2ccccc2c1Cl)c1ccccc1Cl (stereo unspecified)
- EC50 [1]: 0.36 µM
- Emax ([2]; filed as agonist): 93.8%

Compound: Cc1ccccc1C(CNC(=O)c1cc2ccccc2s1)N(C)C (stereo unspecified)
- EC50 [1]: 6.48 µM
- Emax ([2]; filed as agonist): 90.8%
